{
  "source": "patent US10632202B2",
  "about": "“Preservative containing compositions” (JOHNSON & JOHNSON CONSUMER INC., priority 2016, dated 2020)",
  "system": "fungi",
  "assay": "Observed contribution of nutrients to antifungal activity",
  "type": "cell-based",
  "settings": "nutrient of the antimicrobial mixture",
  "data": [
    {"smiles": "NCC(=O)O", "note": "[glycine]", "values": [
      {"measurement": "contribution to the antifungal activity of the antimicrobial mixture", "result": "contribute minimally"}
    ]},
    {"smiles": "CC(O)C(=O)O", "note": "(stereo not shown) [lactate]", "values": [
      {"measurement": "contribution to the antifungal activity of the antimicrobial mixture", "result": "follows the glucose with regard to the significance of its contribution"}
    ]},
    {"smiles": "O=C(O)CC(O)(CC(=O)O)C(=O)O", "note": "[citrate]", "values": [
      {"measurement": "contribution to the antifungal activity of the antimicrobial mixture", "result": "contribute minimally"}
    ]},
    {"smiles": "O=C1O[C@H]([C@@H](O)CO)C(O)=C1O", "note": "[ascorbic acid]", "values": [
      {"measurement": "contribution to the antifungal activity of the antimicrobial mixture", "result": "contribute minimally"}
    ]}
  ]
}
